Values after ≈ are worked out from the molar mass of the structure shown. Active and inactive are the calls of the source. The calls are words filed in the database; no cut-off is given here.
Experiments:
[1] = tested on: Staphylococcus aureus; assay: Antibacterial activity against Staphylococcus aureus ATCC 43300 assessed as inhibition of bacterial growth measured after 18 hrs by microplate reader; format: functional; conditions: read-out: MIC100
[2] = tested on: Staphylococcus aureus; assay: Antibacterial activity against methicillin-resistant Staphylococcus aureus USA 300 assessed as inhibition of bacterial growth measured after 18 hrs by microplate reader; format: functional; conditions: read-out: MIC100
[3] = tested on: Staphylococcus aureus; assay: Antibacterial activity against methicillin-resistant Staphylococcus aureus USA 3390 assessed as inhibition of bacterial growth measured after 18 hrs by microplate reader; format: functional; conditions: read-out: MIC100
[4] = tested on: Escherichia coli; assay: Antibacterial activity against Escherichia coli ATCC 25922 assessed as inhibition of bacterial growth measured after 18 hrs by microplate reader; format: functional; conditions: read-out: MIC100
[5] = tested on: Escherichia coli; assay: Antibacterial activity against Escherichia coli 53328 assessed as inhibition of bacterial growth measured after 18 hrs by microplate reader; format: functional; conditions: read-out: MIC100
[6] = tested on: Pseudomonas aeruginosa; assay: Antibacterial activity against Pseudomonas aeruginosa ATCC 27853 assessed as inhibition of bacterial growth measured after 18 hrs by microplate reader; format: functional
[7] = tested on: Pseudomonas aeruginosa; assay: Antibacterial activity against Pseudomonas aeruginosa 535 assessed as inhibition of bacterial growth measured after 18 hrs by microplate reader; format: functional
[8] = tested on: Klebsiella pneumoniae; assay: Antibacterial activity against Klebsiella pneumonia ATCC 700603 assessed as inhibition of bacterial growth measured after 18 hrs by microplate reader; format: functional
[9] = tested on: Klebsiella pneumoniae; assay: Antibacterial activity against Klebsiella pneumonia 3026 assessed as inhibition of bacterial growth measured after 18 hrs by microplate reader; format: functional
[10] = tested on: Acinetobacter baumannii; assay: Antibacterial activity against Acinetobacter baumannii ATCC 19606 assessed as inhibition of bacterial growth measured after 18 hrs by microplate reader; format: functional
[11] = tested on: Acinetobacter baumannii; assay: Antibacterial activity against Acinetobacter baumannii ATCC 1318 assessed as inhibition of bacterial growth measured after 18 hrs by microplate reader; format: functional
[12] = Cytotoxicity against human L02 cells incubated for 72 hrs by MTT dye reduction assay; format: toxicity, cell-based
[13] = tested on: Staphylococcus aureus; assay: Bactericidal activity against methicillin-resistant Staphylococcus aureus USA 3390 assessed as reduction in CFU at 1 times of MIC concentration measured for short time by time-kill kinetics assay; format: functional, organism-based
[14] = tested on: Staphylococcus aureus; assay: Bactericidal activity against methicillin-resistant Staphylococcus aureus USA 3390 assessed as reduction in CFU at 4 to 8 times of MIC concentration measured after 24 hrs by time-kill kinetics assay; format: functional, organism-based
[15] = tested on: Staphylococcus aureus; assay: Antibacterial activity against methicillin-resistant Staphylococcus aureus USA 3390 assessed as resistance development measured after 30 generations; format: functional, organism-based
[16] = tested on: Staphylococcus aureus; assay: In vivo antibacterial efficacy in bioluminescent Staphylococcus aureus Xen29 infected in mouse topical infection model assessed as reduction in number of colonies at 8 mg/kg, sc treated 16, 24, 36, 48, […] hrs post-infection measured after 84 hrs relative to control; format: functional

SMILES | MIC [1] [µg/mL] | MIC [2] [µg/mL] | MIC [3] [µg/mL] | also measured
Cc1cc(O)c(C(C)C)cc1-c1cccc(C#N)c1 | 32 (≈ 127 µM) | 16 (≈ 63.7 µM) | 8 (≈ 31.8 µM) | 
Cc1cc(OC(=O)CCCCCCCCCC[P+](c2ccccc2)(c2ccccc2)c2ccccc2)c(C(C)C)cc1-c1ccccc1.[Br-] |  |  |  | MIC [4]: > 64 µg/mL; MIC [5]: 32 µg/mL; MIC ([6]; read-out: MIC100): 64 µg/mL; MIC ([7]; read-out: MIC100): > 64 µg/mL; MIC ([8]; read-out: MIC100): > 64 µg/mL; MIC ([9]; read-out: MIC100): > 64 µg/mL; MIC ([10]; read-out: MIC100): > 64 µg/mL; MIC ([11]; read-out: MIC100): > 64 µg/mL; IC50 at 72 h [12]: 3.13 µg/mL
Cc1cc(O)c(C(C)C)cc1-c1cccc(F)c1 | 16 (≈ 65.5 µM) | 16 (≈ 65.5 µM) | 16 (≈ 65.5 µM) | 
Cc1cc(O)c(C(C)C)cc1Br | 64 (≈ 279 µM) | 64 (≈ 279 µM) | 32 (≈ 140 µM) | 
Cc1cc(O)c(C(C)C)cc1-c1ccc(F)cc1 | 16 (≈ 65.5 µM) | 16 (≈ 65.5 µM) | 16 (≈ 65.5 µM) | 
O=C(O)c1cn(C2CC2)c2cc(N3CCNCC3)c(F)cc2c1=O [CIPROFLOXACIN] | 2 (≈ 6.04 µM) | 1 (≈ 3.02 µM) | 1 (≈ 3.02 µM) | MIC ([6]; read-out: MIC): 1 µg/mL (≈ 3.02 µM); MIC ([7]; read-out: MIC): 1 µg/mL (≈ 3.02 µM); MIC ([8]; read-out: MIC): 0.12 µg/mL (≈ 0.362 µM); MIC ([9]; read-out: MIC): 0.06 µg/mL (≈ 0.181 µM); MIC ([10]; read-out: MIC): 0.5 µg/mL (≈ 1.51 µM); MIC ([11]; read-out: MIC): 1 µg/mL (≈ 3.02 µM); Activity [13]: Active; Activity [14]: Active; Activity [15]: Active
COc1ccc(-c2cc(C(C)C)c(O)cc2C)cc1 | 16 (≈ 62.4 µM) | 32 (≈ 125 µM) | 16 (≈ 62.4 µM) | 
Cc1cc(O)c(C(C)C)cc1-c1ccc(C#N)cc1 | 16 (≈ 63.7 µM) | 16 (≈ 63.7 µM) | 32 (≈ 127 µM) | 
Cc1cc(O)c(C(C)C)cc1-c1ccc(C(=O)O)cc1 | 16 (≈ 59.2 µM) | 16 (≈ 59.2 µM) | 8 (≈ 29.6 µM) | 
Cc1cc(O)c(C(C)C)cc1-c1ccccc1Cl | 8 (≈ 30.7 µM) | 8 (≈ 30.7 µM) | 8 (≈ 30.7 µM) | 
Cc1cc(O)c(C(C)C)cc1-c1ccccc1C(F)(F)F | 8 (≈ 27.2 µM) | 8 (≈ 27.2 µM) | 16 (≈ 54.4 µM) | 
CN[C@H](CC(C)C)C(=O)N[C@H]1C(=O)N[C@@H](CC(N)=O)C(=O)N[C@H]2C(=O)N[C@H]3C(=O)N[C@H](C(=O)N[C@H](C(=O)O)c4cc(O)cc(O)c4-c4cc3ccc4O)[C@H](O)c3ccc(c(Cl)c3)Oc3cc2cc(c3O[C@@H]2O[C@H](CO)[C@@H](O)[C@H](O)[C@H]2O[C@H]2C[C@](C)(N)[C@H](O)[C@H](C)O2)Oc2ccc(cc2Cl)[C@H]1O |  |  |  | AC200 [16]: Active
Cc1cc(O)c(C(C)C)cc1-c1ccccc1 | 16 (≈ 70.7 µM) | 8 (≈ 35.3 µM) | 16 (≈ 70.7 µM) | IC50 at 72 h [12]: 13.5 µg/mL (≈ 59.5 µM)
Cc1cc(O)c(C(C)C)cc1-c1cccc(O)c1 | 32 (≈ 132 µM) | 32 (≈ 132 µM) | 32 (≈ 132 µM) | 
Cc1cccc(-c2cc(C(C)C)c(O)cc2C)c1 | 16 (≈ 66.6 µM) | 8 (≈ 33.3 µM) | 8 (≈ 33.3 µM) | 
Cc1cc(OC(=O)CCCCCCCC[P+](c2ccccc2)(c2ccccc2)c2ccccc2)c(C(C)C)cc1-c1ccccc1.[Br-] |  |  |  | MIC [4]: 4 µg/mL; MIC [5]: 16 µg/mL; MIC ([6]; read-out: MIC100): 64 µg/mL; MIC ([7]; read-out: MIC100): 32 µg/mL; MIC ([8]; read-out: MIC100): 64 µg/mL; MIC ([9]; read-out: MIC100): 64 µg/mL; MIC ([10]; read-out: MIC100): 16 µg/mL; MIC ([11]; read-out: MIC100): 8 µg/mL; IC50 at 72 h [12]: 13.2 µg/mL
Cc1cc(OC(=O)CCCCCCCCC[P+](c2ccccc2)(c2ccccc2)c2ccccc2)c(C(C)C)cc1-c1ccccc1.[Br-] |  |  |  | MIC [4]: 4 µg/mL; MIC [5]: 64 µg/mL; MIC ([6]; read-out: MIC100): 32 µg/mL; MIC ([7]; read-out: MIC100): 32 µg/mL; MIC ([8]; read-out: MIC100): 32 µg/mL; MIC ([9]; read-out: MIC100): > 64 µg/mL; MIC ([10]; read-out: MIC100): 32 µg/mL; MIC ([11]; read-out: MIC100): 16 µg/mL; IC50 at 72 h [12]: 8.67 µg/mL
Cc1cc(O)c(C(C)C)cc1-c1ccccc1C#N | 16 (≈ 63.7 µM) | 8 (≈ 31.8 µM) | 8 (≈ 31.8 µM) | 
Cc1cc(O)c(C(C)C)cc1-c1ccncc1 | 128 (≈ 563 µM) | 128 (≈ 563 µM) | 128 (≈ 563 µM) | 

— ChEMBL document CHEMBL5512654, “Discovery of novel Thymol-TPP antibiotics that eradicate MRSA persisters” (Eur J Med Chem, 2024)
